In patent US20140194498A1, “POLYISOPRENYLATED TETRACYCLIC XANTHONE WITH ANTICANCER ACTIVITY” (Hong Kong Baptist University, priority 2013, published 2014):
“Also recorded” adds a separate entry of the source. Read-outs that look alike come from different tables or passages of the source.

How the values were obtained:
[1] = tested on: SMMC-7721 (human hepatocellular carcinoma); assay: cells
Procedure: (§1) To determine the cytotoxicity of garciesculentone B, its IC50 values on HepG2, SMMC-7721, MCF-7, and MDA-MB-231 cell lines are measured. […] In addition, further study is taken to test whether garciesculentone B can exert effects on cell motility. A wound healing assay using ECA109 cells is performed in this regard.
(§2) Cytotoxicity Assay. Cytotoxic activitiy of garciesculentone B were evaluated by MTT assay using SMMC-7721 (human hepatocellular carcinoma), HepG2 (human hepatocellular carcinoma), MCF-7 (human breast adenocarcinoma), and MDA-MB-231 (human breast adenocarcinoma). Paclitaxel was used as positive control. The detailed methodology for cytotoxicity assay has already been described in Xia, Z.-X.; Zhang, D.-D.; Liang, S.; Lao, Y.-Z.; Zhang, H.; Tan, H.-S.; Chen, S.-L.; Wang, X.-H.; Xu, H.-X., Bioassay-Guided Isolation of Prenylated Xanthones and Polycyclic Acylphloroglucinols from the Leaves of Garcinia nujiangensis. Journal of Natural Products 2012.

[2] = tested on: MCF-7 (human breast adenocarcinoma); format: cell-based
Text: (§3) Cytotoxicity Assay. […] Paclitaxel was used as positive control. […] Journal of Natural Products 2012.

[3] = tested on: MDA-MB-231 (human breast adenocarcinoma); format: cell-based
Text: as §3

[4] = tested on: HepG2 (human hepatocellular carcinoma)
Procedure: as §1, §2

[5] = tested on: human esophageal carcinoma (ECA109) cells; assay: Wound healing assay; format: cell-based
Procedure: Wound healing assay. A wound healing assay was performed by using a modified procedure described previously in Jones, J. I.; Gockerman, A.; Busby, W. H., Jr.; Wright, G.; Clemmons, D. R., Insulin-like growth factor binding protein 1 stimulates cell migration and binds to the alpha 5 beta 1 integrin by means of its Arg-Gly-Asp sequence. Proc Natl Acad Sci USA 1993, 90 (22), 10553-7. Briefly, cells were plated in 24 wells plate at 70% confluence in conditioned medium. 24 hours after seeding the monolayers were wounded by scoring with a sterile plastic 20 μL micropipette tip, then rinsed several times with media to remove cell debris and then incubated in completed medium in the absence or presence of tested compounds (10 and 20 μg/mL) for various periods of time up to 36 hours. Cell migration into the wound surface was monitored by Olympus IX71 microscopy and digitally photographed.

Molecule	IC50 ([1]; Homo sapiens, SMMC-7721, read-out: Cytotoxicity IC50, SMMC-7721)	IC50 [2]	IC50 [3]	IC50 [4]	IC50 [1]	Cell migration into the wound area (antimigration effect) ([5]; 10 and 20 μg/mL)	Wound closure ([5]; up to 36 hours, control wound edges indistinguishable by 36 hours)
CC(=O)O[C@H]1C(=O)[C@@]2(C)[C@H]([C@H](OC(=O)c3ccccc3)[C@]3(O)C[C@H](OC(=O)[C@H](O)[C@@H](NC(=O)c4ccccc4)c4ccccc4)C(C)=C1C3(C)C)[C@]1(OC(C)=O)CO[C@@H]1C[C@@H]2O [Palcitaxel, Paclitaxel, reference compound]	0.0091 µM						
garciesculentone B		23.7 µM	33.9 µM	31.4 µM	11.8 µM	significant delay in cells moving into the wound area; also recorded: shows antimigration effect on ECA109 cells	do not migrate into and completely close the wound
